Data set [1] has as its target T1, Histamine H3 receptor (Homo sapiens, UniProt Q9Y5N1). Description: Agonist activity at human H3R expressed in HEK293 cells harboring glosensor-22F cAMP plasmid DNA assessed as inhibition of forskolin-stimulated cAMP accumulation preincubated with cells followed by forskolin addition measured after 10 mins by luminescence assay. The class given is functional, cell-based. A general note: cAMP levels reflect the balance of adenylyl cyclase and phosphodiesterase activity.

The target of data set [2] is Histamine H1 receptor (Homo sapiens) (UniProt P35367). Description: Agonist activity at H1R (unknown origin) expressed in HEK293 cells harboring luc2P/NFAT-RE plasmid at 10 uM after 6 to 8 hrs by luciferase reporter gene assay. The class given is functional, cell-based. In general terms: A reporter such as luciferase makes a cellular process visible.
Chain of Histamine H1 receptor (Homo sapiens) (P35367 whole entry): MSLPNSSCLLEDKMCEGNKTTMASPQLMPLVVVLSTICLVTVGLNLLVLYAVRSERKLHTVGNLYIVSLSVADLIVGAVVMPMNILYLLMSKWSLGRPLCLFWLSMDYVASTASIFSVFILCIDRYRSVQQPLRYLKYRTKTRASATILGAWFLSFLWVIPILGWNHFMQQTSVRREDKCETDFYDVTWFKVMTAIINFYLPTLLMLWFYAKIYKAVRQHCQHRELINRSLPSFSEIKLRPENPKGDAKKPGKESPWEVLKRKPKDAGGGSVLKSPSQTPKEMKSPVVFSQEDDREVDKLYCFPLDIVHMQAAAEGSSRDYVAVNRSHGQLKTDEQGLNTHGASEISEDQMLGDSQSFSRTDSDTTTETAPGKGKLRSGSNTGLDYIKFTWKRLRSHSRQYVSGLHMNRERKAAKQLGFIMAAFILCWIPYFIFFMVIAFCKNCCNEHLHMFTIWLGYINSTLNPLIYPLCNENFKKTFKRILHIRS
In data set [3] the target is T2, 5-hydroxytryptamine receptor 2C (Homo sapiens) (UniProt P28335).
T2 sequence (whole entry): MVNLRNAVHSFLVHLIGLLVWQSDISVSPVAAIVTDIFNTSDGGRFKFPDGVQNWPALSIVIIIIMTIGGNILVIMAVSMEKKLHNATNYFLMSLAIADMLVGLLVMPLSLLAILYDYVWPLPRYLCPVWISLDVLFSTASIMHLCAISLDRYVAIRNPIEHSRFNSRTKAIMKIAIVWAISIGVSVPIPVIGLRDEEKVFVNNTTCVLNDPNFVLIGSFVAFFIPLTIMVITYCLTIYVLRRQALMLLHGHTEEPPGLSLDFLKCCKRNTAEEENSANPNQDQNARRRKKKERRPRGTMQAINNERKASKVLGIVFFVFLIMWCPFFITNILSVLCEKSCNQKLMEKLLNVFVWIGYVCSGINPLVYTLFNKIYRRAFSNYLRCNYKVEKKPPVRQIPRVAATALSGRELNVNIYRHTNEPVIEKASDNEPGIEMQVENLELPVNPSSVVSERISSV
Description: Antagonist activity at human 5-HT2C expressed in HEK293 cells harboring luc2P/NFAT-RE plasmid at 10 uM after 6 to 8 hrs by luciferase reporter gene assay. The class given is functional, cell-based.

In data set [4] the target is Histamine H4 receptor (Homo sapiens) (UniProt Q9H3N8). Nature of the data set: Agonist activity at H4R (unknown origin) expressed in HEK293 cells harboring glosensor-22F cAMP plasmid DNA assessed as inhibition of forskolin-stimulated cAMP accumulation at 10 uM preincubated with cells followed by forskolin addition measured after 10 mins by luminescence assay. The class given is functional, cell-based.
Chain of Histamine H4 receptor (Homo sapiens) (Q9H3N8 whole entry): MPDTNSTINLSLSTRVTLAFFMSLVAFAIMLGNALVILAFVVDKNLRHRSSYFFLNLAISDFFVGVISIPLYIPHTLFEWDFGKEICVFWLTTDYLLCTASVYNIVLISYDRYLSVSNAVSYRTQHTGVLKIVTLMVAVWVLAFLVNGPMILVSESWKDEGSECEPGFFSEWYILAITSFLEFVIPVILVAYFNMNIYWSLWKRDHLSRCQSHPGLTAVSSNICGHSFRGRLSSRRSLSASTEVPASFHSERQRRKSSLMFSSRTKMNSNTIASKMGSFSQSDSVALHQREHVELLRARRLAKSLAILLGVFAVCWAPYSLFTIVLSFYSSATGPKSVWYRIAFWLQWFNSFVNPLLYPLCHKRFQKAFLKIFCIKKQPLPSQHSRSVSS

Data set [5] shares this target. Description: Antagonist activity at H4R (unknown origin) expressed in HEK293 cells harboring glosensor-22F cAMP plasmid DNA assessed as effect on forskolin-stimulated cAMP accumulation at 10 uM preincubated with cells followed by forskolin addition measured after 10 mins by luminescence assay. Type of data set: functional, cell-based.
The target in data set [6] is Luciferin 4-monooxygenase (Photinus pyralis) (UniProt P08659). Description: Inhibition of firefly luciferase activity expressed in HEK293 cells assessed as reduction in forskolin-stimulated cAMP accumulation up to 10 uM preincubated with cells followed by forskolin addition measured after 10 mins by luminescence assay. Type of data set: cell-based.
Chain of Luciferin 4-monooxygenase (Photinus pyralis) (P08659 whole entry): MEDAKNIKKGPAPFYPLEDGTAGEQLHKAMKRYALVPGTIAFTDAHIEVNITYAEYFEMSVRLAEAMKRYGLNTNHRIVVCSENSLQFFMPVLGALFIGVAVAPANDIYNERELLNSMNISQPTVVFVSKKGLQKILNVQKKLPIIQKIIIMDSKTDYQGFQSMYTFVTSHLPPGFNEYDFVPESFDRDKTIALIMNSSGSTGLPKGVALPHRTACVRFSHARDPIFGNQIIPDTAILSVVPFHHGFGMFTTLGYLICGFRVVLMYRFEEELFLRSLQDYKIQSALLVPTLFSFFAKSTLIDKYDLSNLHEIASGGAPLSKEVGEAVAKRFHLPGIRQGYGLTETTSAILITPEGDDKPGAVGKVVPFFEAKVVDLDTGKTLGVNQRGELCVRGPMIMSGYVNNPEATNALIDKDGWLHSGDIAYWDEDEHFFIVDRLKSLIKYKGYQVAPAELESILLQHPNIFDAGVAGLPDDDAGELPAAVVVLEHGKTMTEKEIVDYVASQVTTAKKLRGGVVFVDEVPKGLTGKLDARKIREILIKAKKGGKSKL
The subject of another data set is HEK-293T. Nature of the data set: Cytotoxicity against HEK293T cells assessed as reduction in cell viability at 1 to 10 uM after 24 hrs by XTT assay. Type of data set: cell-based. The note with it: human. A general note: Formazan colour is commonly taken as a measure of viable cells.
The target in data set [7] is T1, Histamine H3 receptor. Description: Agonist activity at human H3R expressed in HEK293 cells harboring glosensor-22F cAMP plasmid DNA assessed as inhibition of forskolin-stimulated cAMP accumulation at 1 uM preincubated with cells followed by forskolin addition measured after 10 mins in presence of H3R antagonist GSK334429 by luminescence assay. The class given is functional, cell-based.

The target in data set [8] is Histamine H2 receptor (Homo sapiens) (UniProt P25021). Nature of the data set: Antagonist activity at H2R (unknown origin) expressed in HEK293 cells harboring glosensor-22F cAMP plasmid DNA assessed as effect on forskolin-stimulated cAMP accumulation at 10 uM preincubated with cells followed by forskolin addition measured after 10 mins by luminescence assay. The class given is functional, cell-based.
Chain of Histamine H2 receptor (Homo sapiens) (P25021 whole entry): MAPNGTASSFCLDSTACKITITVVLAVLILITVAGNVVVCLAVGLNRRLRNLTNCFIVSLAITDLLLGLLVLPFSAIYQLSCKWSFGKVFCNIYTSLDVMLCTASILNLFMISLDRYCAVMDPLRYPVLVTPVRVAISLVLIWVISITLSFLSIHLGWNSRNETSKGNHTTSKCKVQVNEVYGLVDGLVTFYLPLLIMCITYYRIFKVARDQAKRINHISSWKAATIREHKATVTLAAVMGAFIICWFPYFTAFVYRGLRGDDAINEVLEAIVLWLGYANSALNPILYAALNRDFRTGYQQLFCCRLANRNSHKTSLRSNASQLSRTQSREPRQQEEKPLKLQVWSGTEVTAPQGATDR

Data set [9] addresses T2, 5-hydroxytryptamine receptor 2C (Homo sapiens). Nature of the data set: Agonist activity at human 5-HT2C expressed in HEK293 cells harboring luc2P/NFAT-RE plasmid at 10 uM after 6 to 8 hrs by luciferase reporter gene assay. The class given is functional, cell-based.
The target of data set [10] is Histamine H1 receptor (Homo sapiens) (UniProt P35367). Nature of the data set: Antagonist activity at H1R (unknown origin) expressed in HEK293 cells harboring luc2P/NFAT-RE plasmid at 10 uM after 6 to 8 hrs by luciferase reporter gene assay. The class given is functional, cell-based.
Data set [11] has as its target Histamine H2 receptor (Homo sapiens) (UniProt P25021). Description: Agonist activity at H2R (unknown origin) expressed in HEK293 cells harboring glosensor-22F cAMP plasmid DNA assessed as inhibition of forskolin-stimulated cAMP accumulation at 10 uM preincubated with cells followed by forskolin addition measured after 10 mins by luminescence assay. Type of data set: functional, cell-based.

For data set [12], the target named is T1, Histamine H3 receptor. Description: Agonist activity at human H3R expressed in HEK293 cells harboring glosensor-22F cAMP plasmid DNA assessed as inhibition of forskolin-stimulated cAMP accumulation at 10 uM preincubated with cells followed by forskolin addition measured after 10 mins by luminescence assay relative to control. Type of data set: functional, cell-based.

Calls of active or inactive are those of the source. Unless noted, the rule behind the calls is not given here.

T1 sequence (Q9Y5N1 whole entry): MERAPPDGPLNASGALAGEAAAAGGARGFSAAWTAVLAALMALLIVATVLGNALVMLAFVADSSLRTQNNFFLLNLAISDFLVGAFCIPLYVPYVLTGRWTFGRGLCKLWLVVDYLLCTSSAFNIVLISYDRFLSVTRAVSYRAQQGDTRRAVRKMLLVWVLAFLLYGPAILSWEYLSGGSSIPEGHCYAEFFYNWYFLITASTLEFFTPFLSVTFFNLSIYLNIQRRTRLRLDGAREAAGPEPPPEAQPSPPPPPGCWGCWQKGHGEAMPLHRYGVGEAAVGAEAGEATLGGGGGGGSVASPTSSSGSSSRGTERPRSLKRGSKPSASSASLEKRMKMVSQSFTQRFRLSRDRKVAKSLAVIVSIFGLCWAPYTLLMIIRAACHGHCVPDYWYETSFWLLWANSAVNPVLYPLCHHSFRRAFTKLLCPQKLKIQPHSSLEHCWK

Consider `N=C(N)SCCc1cnc[nH]1`, for which the EC50 at Histamine H3 receptor [1] (read-out: EC50) is 0.08 nM.
Take `COc1ccc(NC2(c3ccccc3)C(=O)N(C(C)(C)C)C(=O)/C2=C/c2ccccc2)cc1` (configuration not stated): the outcome in data set [2] and in data set [9] was inactive. Also, the inhibition entry (in data set [3]; in data set [4]; in data set [5]; in data set [6]; on Histamine H3 receptor [7]; in [8]) was “inactive” each time. The inhibition result in data set [10] and in [11] was “inactive” throughout. The Activity entry in the data set with HEK-293T is “Non-Toxic”. Besides, the EC50 at Histamine H3 receptor [1] (read-out: EC50) is 3 nM; on Histamine H3 receptor [1] (read-out: pEC50 (converted)), 22.9 nM.
In the case of `COc1ccc(N2C(=O)/C(=C\c3ccccc3)C2(C(=O)NC(C)(C)C)c2ccc(Br)cc2)cc1OC` (configuration not stated), the result in data set [2] and in data set [9] was inactive. In addition, the inhibition entry (in data set [3]; in data set [4]; in data set [5]; in data set [6]; on Histamine H3 receptor [7]; in [8]) was “inactive” throughout. The inhibition entry in [10] and in data set [11] was “inactive” throughout. Moreover, in the data set with HEK-293T, the Activity entry is “Non-Toxic”. Moreover, the EC50 on Histamine H3 receptor [1] (read-out: EC50) was 24 nM; at Histamine H3 receptor [1] (read-out: pEC50 (converted)), 25.7 nM.
On to `O=C1C=C[C@]23C(c4ccccc4)=CC(=O)N2[C@H](c2cc(F)cc(F)c2)C(=O)N[C@@H]3C1`, for which the result in data set [2] and in [9] was inactive. Moreover, the inhibition result (in data set [3]; in data set [4]; in data set [5]; in [6]; at Histamine H3 receptor [7]; in data set [8]) was “inactive” throughout. The inhibition entry in [10] and in data set [11] was “inactive” each time. Also, the Activity entry in the data set on HEK-293T was “Non-Toxic”. Also, the EC50 at Histamine H3 receptor [1] (read-out: EC50) stood at 10 nM.
Turning to `COC1=CC2(C=C(OC)C1=O)C(c1ccccc1)=C(c1ccc(C(F)(F)F)cc1)C(=O)N2C(C(=O)NC1CCCCC1)c1ccc(OC)c(OC)c1OC` (configuration not stated), the outcome in data set [2] and in [9] was inactive. In addition, the inhibition result (in [3]; in data set [4]; in data set [5]; in data set [6]; on Histamine H3 receptor [7]; in [8]) was “inactive” in each case. Moreover, the inhibition entry in [10] and in data set [11] was “inactive” in each case. For the same compound, the Activity result in the data set with HEK-293T is given as “Non-Toxic”. Further, the EC50 on Histamine H3 receptor [1] (read-out: EC50) came to 6.7 nM.
As for `COc1ccc(NC2(c3ccc(F)cc3)C(=O)N(C(C)(C)C)C(=O)/C2=C/c2ccccc2)cc1` (configuration not stated), the result in data set [2] and in data set [9] was inactive. The inhibition entry (in data set [3]; in [4]; in data set [5]; in data set [6]; on Histamine H3 receptor [7]; in data set [8]) was “inactive” in each case. For the same compound, the inhibition entry in data set [10] and in data set [11] was “inactive” throughout. Besides, in the data set with HEK-293T, the Activity entry is “Non-Toxic”. For the same compound, the EC50 at Histamine H3 receptor [1] (read-out: EC50) is 1.3 nM; at Histamine H3 receptor [1] (read-out: pEC50 (converted)), 1.23 nM.
As for `COc1ccc(NC2(c3cc(F)cc(F)c3)C(=O)N(C3CCCCC3)C(=O)/C2=C/c2ccccc2)cc1` (configuration not stated), the outcome in data set [2] and in data set [9] was inactive. For the same compound, the inhibition entry (in data set [3]; in [4]; in data set [5]; in [6]; at Histamine H3 receptor [7]; in data set [8]) was “inactive” throughout. Also, the inhibition result in data set [10] and in data set [11] was “inactive” each time. Besides, the Activity result with HEK-293T is recorded as “Non-Toxic”. For the same compound, at Histamine H3 receptor [1] (read-out: EC50), the EC50 amounted to 3.8 nM.
Take `COc1ccc(N2C(=O)C(=Cc3ccccc3)C2(C(=O)NC2CCCCC2)c2cc(F)c(F)c(F)c2)cc1` (configuration not stated): the outcome in [2] and in data set [9] was inactive. Moreover, the inhibition result (in data set [3]; in data set [4]; in data set [5]; in data set [6]; at Histamine H3 receptor [7]; in data set [8]) was “inactive” each time. The inhibition result in data set [10] and in data set [11] was “inactive” throughout. For the same compound, the Activity result in the data set with HEK-293T is given as “Non-Toxic”. Further, on Histamine H3 receptor [1] (read-out: EC50), the EC50 amounted to 0.1 nM.
Turning to `COc1ccc(C2=C(c3ccccc3)C3(C=CC(=O)C=C3)N(C(C(=O)NC3CCCCC3)c3cc4c(cc3Br)OCO4)C2=O)cc1` (configuration not stated), the outcome in [2] and in data set [9] was inactive. Further, the inhibition result (in [3]; in [4]; in [5]; in data set [6]; on Histamine H3 receptor [7]; in [8]) was “inactive” throughout. For the same compound, the inhibition result in [10] and in data set [11] was “inactive” in each case. Further, the Activity entry in the data set on HEK-293T is recorded as “Non-Toxic”. Further, the EC50 at Histamine H3 receptor [1] (read-out: EC50) turned out to be 14.4 nM.
For `COc1cc(NC2(c3ccccc3Cl)C(=O)N(C(C)(C)C)C(=O)/C2=C/c2ccccc2)cc(OC)c1OC` (configuration not stated), the outcome in data set [2] and in [9] was inactive. In addition, the inhibition result (in data set [3]; in data set [4]; in data set [5]; in data set [6]; at Histamine H3 receptor [7]; in [8]) was “inactive” in each case. The inhibition entry in data set [10] and in data set [11] was “inactive” in each case. Besides, the Activity entry in the data set on HEK-293T is “Non-Toxic”. Further, the EC50 on Histamine H3 receptor [1] (read-out: EC50) is 187 nM.
Regarding `O=C1C=C[C@]23C(c4ccccc4)=CC(=O)N2[C@H](c2cccc(OC(F)(F)F)c2)C(=O)N[C@@H]3C1`, the inhibition result on Histamine H3 receptor [12] is “inactive”. The result in [9] was inactive.
Take `Cc1cc(C(C(=O)NC(C)(C)C)N2C(=O)C(I)=C(c3ccccc3)C23C=CC(=O)C=C3)cc(C)c1O` (configuration not stated): the inhibition result at Histamine H3 receptor [12] was “inactive”. Also, the result in data set [9] was inactive.
For the compound `COc1ccc(N2C(=O)/C(=C\c3ccccc3)C2(C(=O)NC(C)(C)C)c2ccc(F)cc2)cc1` (configuration not stated), at Histamine H3 receptor [12], the inhibition entry is “inactive”. In [9], the outcome was inactive.
For the compound `COc1ccc(C(C(=O)NC2CCCCC2)N2C(=O)C(I)=C(c3ccccc3)C23C=CC(=O)C=C3)cc1` (configuration not stated), the inhibition entry at Histamine H3 receptor [12] was “inactive”. Besides, the outcome in data set [9] was inactive.
With `COc1ccc([C@@H]2C(=O)N[C@@H]3CC(=O)C=C[C@@]34C(c3ccccc3)=CC(=O)N24)cc1`, the inhibition entry at Histamine H3 receptor [12] is “inactive”. Further, the outcome in [9] was inactive.

These data come from ChEMBL document CHEMBL4152237, “Identification of novel β-lactams and pyrrolidinone derivatives as selective Histamine-3 receptor (H3R) modulators as possible anti-obesity agents” (Eur J Med Chem, 2018).
